In patent US20090306133A1, “New Acetyl Coenzyme A Carboxylase (ACC) Inhibitors And Uses In Treatments Of Obesity And Diabetes Mellitus - 087” (ASTRAZENECA AB, priority 2007, published 2009):

Tests used:
[1] = molecular target: Human recombinant Acetyl-CoA Carboxylase 2 (ACC2) (Homo sapiens, UniProt O00763); assay: Assay X: ACC2 inhibition, inorganic phosphate (malachite green); assay type: biochemical; conditions: Assay X: 37° C., 1.5 h, 5 min pre-incubation
Procedure, shortened: (§1)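 Human recombinant enzyme pre-incubated 5 min with compound before substrate addition; reaction run 1.5 h, then inorganic phosphate detected by malachite green absorbance at 660 nm. Ten concentrations tested in triplicate; apparent IC50 from four-parameter curve fit.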

[2] = molecular target: Human recombinant Acetyl-CoA Carboxylase 1 (ACC1) (Homo sapiens, UniProt Q13085); assay: Assay X: ACC1 inhibition, inorganic phosphate (malachite green); assay type: biochemical; conditions: Assay X: 37° C., 1.5 h, 5 min pre-incubation
Procedure, shortened: as §1

Human recombinant Acetyl-CoA Carboxylase 2 (ACC2), sequence (O00763 whole entry): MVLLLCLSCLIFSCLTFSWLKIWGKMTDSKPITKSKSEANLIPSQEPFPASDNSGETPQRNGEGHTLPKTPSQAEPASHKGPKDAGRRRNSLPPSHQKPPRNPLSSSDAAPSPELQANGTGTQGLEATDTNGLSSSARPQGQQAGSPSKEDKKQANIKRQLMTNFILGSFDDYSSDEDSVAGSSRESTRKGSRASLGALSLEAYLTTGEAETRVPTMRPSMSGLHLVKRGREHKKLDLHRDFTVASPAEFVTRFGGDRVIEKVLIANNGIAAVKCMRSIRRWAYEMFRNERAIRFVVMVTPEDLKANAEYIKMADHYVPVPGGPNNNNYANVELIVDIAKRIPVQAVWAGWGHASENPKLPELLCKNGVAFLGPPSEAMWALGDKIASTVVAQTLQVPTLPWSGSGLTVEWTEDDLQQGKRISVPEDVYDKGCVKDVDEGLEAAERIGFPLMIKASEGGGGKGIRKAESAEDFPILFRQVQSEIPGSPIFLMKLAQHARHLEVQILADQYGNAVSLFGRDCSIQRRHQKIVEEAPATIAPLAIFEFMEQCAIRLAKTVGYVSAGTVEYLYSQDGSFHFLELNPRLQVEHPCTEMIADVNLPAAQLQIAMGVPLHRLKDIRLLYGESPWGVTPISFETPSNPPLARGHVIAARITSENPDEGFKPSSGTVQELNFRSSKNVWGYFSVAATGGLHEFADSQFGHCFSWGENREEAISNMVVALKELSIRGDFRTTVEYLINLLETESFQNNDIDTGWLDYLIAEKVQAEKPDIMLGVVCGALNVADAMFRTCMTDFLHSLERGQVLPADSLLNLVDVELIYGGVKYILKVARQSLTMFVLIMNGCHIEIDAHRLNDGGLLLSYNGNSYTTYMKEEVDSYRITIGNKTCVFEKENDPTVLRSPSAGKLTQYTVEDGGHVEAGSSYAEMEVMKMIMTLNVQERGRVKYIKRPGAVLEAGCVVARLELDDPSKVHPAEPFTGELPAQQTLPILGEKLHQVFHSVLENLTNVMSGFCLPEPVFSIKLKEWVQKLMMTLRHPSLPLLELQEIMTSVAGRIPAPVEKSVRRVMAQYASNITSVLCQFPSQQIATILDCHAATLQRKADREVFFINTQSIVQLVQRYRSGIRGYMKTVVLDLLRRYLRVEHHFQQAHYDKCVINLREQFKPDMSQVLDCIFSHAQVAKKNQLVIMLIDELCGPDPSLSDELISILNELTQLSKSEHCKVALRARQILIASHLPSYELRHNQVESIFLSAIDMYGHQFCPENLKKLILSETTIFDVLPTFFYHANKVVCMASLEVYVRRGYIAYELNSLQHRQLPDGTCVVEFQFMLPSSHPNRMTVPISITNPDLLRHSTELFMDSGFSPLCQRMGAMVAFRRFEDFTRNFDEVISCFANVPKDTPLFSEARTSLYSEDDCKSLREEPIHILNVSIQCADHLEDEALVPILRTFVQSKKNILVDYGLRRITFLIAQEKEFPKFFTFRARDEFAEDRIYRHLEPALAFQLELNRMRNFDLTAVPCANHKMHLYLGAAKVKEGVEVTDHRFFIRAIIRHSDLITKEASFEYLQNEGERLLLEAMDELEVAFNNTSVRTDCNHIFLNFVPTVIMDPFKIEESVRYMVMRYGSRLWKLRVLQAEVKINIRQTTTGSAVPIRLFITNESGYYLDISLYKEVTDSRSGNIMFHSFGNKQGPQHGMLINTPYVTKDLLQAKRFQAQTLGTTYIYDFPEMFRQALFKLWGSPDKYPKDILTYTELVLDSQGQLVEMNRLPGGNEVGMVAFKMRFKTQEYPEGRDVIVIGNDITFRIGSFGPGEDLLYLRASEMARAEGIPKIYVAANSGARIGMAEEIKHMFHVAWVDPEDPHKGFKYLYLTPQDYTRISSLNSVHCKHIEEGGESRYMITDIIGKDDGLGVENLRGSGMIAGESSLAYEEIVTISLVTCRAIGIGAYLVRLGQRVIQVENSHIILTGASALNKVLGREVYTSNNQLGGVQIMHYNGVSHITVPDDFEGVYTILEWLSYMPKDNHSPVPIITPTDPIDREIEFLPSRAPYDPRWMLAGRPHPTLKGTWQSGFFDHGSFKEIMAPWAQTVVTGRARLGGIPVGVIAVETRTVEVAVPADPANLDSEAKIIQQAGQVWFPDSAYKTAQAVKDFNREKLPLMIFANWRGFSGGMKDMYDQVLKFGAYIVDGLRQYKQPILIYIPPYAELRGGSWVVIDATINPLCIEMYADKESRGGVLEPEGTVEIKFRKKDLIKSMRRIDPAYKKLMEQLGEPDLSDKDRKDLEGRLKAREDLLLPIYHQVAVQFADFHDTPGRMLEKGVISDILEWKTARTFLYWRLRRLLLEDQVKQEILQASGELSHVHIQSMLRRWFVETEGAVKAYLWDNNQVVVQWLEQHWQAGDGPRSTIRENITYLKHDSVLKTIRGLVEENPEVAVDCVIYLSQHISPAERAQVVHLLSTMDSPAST

| SMILES | IC50 [1] | IC50 [2] |
| --- | --- | --- |
| CC(C)(C)OC(=O)NC[C@H]1CC[C@H](CNC(=O)c2cc(Oc3cccnc3)nc3ccccc23)CC1 [Example 215, tert-Butyl ({trans-4-[({[2-(pyridin-3-yloxy)quinolin-4-yl]carbonyl}amino)-methyl]cyclohexyl}methyl)carbamate] | 490 nM | > 20000 nM |
| CN1CCC(COc2cc(C(=O)NC[C@H]3CC[C@H](CNC(=O)OC(C)(C)C)CC3)c3ccccc3n2)CC1 [Example 216, tert-Butyl [(trans-4-{[({2-[(1-methylpiperidin-4-yl)methoxy]quinolin-4-yl}carbonyl)amino]methyl}cyclohexyl)methyl]-carbamate] | 720 nM | 3550 nM |
| CN(C)CCNC(=O)C1CN(c2cc(C(=O)NC[C@H]3CC[C@H](CNC(=O)OC(C)(C)C)CC3)c3ccccc3n2)C1 [Example 217, tert-Butyl ({trans-4-[({[2-(3-{[2-(dimethylamino)ethyl]carbamoyl}azetidin-1-yl)quinolin-4-yl]carbonyl}amino)methyl]cyclohexyl}methyl)carbamate] | 730 nM | 4700 nM |
| CC(C)(C)OC(=O)NC[C@H]1CC[C@H](CNC(=O)c2cc(-c3ccc(N)cc3)nc3ccccc23)CC1 [Example 218, tert-Butyl ({trans-4-[({[2-(4-aminophenyl)quinolin-4-yl]carbonyl}amino)-methyl]cyclohexyl}methyl)carbamate] | 60 nM | 210 nM |
| CN(C)CCN1CCN(c2cc(C(=O)NC[C@H]3CC[C@H](CNC(=O)OC(C)(C)C)CC3)c3ccccc3n2)CC1=O [Example 219, tert-Butyl {[trans-4-({[(2-{4-[2-(dimethylamino)ethyl]-3-oxopiperazin-1-yl}quinolin-4-yl)carbonyl]amino}methyl)cyclohexyl]methyl}carbamate] | 900 nM | 4580 nM |
| CC(C)(C)OC(=O)NC[C@H]1CC[C@H](CNC(=O)c2cc(N3CCN(C(=O)CO)CC3)nc3ccccc23)CC1 [Example 220, tert-Butyl [(trans-4-{[({2-[4-(hydroxyacetyl)piperazin-1-yl]quinolin-4-yl}carbonyl)amino]methyl}cyclohexyl)methyl]carbamate] | 1180 nM | 9630 nM |
| CC(C)(C)OC(=O)NC[C@H]1CC[C@H](CNC(=O)c2cc(N3CCC(OCc4ccc(F)cc4)CC3)nc3ccccc23)CC1 [Example 221, tert-Butyl {[trans-4-({[(2-{4-[(4-fluorobenzyl)oxy]piperidin-1-yl}quinolin-4-yl)carbonyl]amino}methyl)cyclohexyl]methyl}carbamate] | 1610 nM | > 20000 nM |
| CC(C)(C)OC(=O)NC[C@H]1CC[C@H](CNC(=O)c2c(N)sc3ccccc23)CC1 [Example 222, tert-Butyl {[trans-4-({[(2-amino-1-benzothiophen-3-yl)carbonyl]amino}methyl)-cyclohexyl]methyl}carbamate] | 3400 nM | 9100 nM |
| CCNC(=O)Nc1sc2ccccc2c1C(=O)NC[C@H]1CC[C@H](CNC(=O)OC(C)(C)C)CC1 [Example 223, tert-Butyl [(trans-4-{[({2-[(ethylcarbamoyl)amino]-1-benzothiophen-3-yl}carbonyl)amino]methyl}cyclohexyl)methyl]carbamate] | 230 nM | 1160 nM |
| CN(C)CCC1CCN(c2cc(C(=O)NC[C@H]3CC[C@H](CNC(=O)OC4CCOCC4)CC3)c3ccccc3n2)CC1 [Example 224, Tetrahydro-2H-pyran-4-yl {[trans-4-({[(2-{4-[2-(dimethylamino)ethyl]piperidin-1-yl}quinolin-4-yl)carbonyl]amino}methyl)cyclohexyl]methyl}carbamate] | 680 nM | 6310 nM |
| CN1CCC(C2CCN(c3cc(C(=O)NC[C@H]4CC[C@H](CNC(=O)OC(C)(C)C)CC4)c4ccccc4n3)CC2)CC1 [Example 225, tert-Butyl ({trans-4-[({[2-(1′-methyl-4,4′-bipiperidin-1-yl)quinolin-4-yl]carbonyl}amino)methyl]cyclohexyl}methyl)carbamate] | 110 nM | 950 nM |
| COCCNCCC1CCN(c2cc(C(=O)NC[C@H]3CC[C@H](CNC(=O)OC(C)(C)C)CC3)c3ccccc3n2)CC1 [Example 226, tert-Butyl ({trans-4-[({[2-(4-{2-[(2-methoxyethyl)amino]ethyl}piperidin-1-yl)quinolin-4-yl]carbonyl}amino)methyl]cyclohexyl}methyl)carbamate] | 200 nM | 1630 nM |
| COCCN(C)CCC1CCN(c2cc(C(=O)NC[C@H]3CC[C@H](CNC(=O)OC(C)(C)C)CC3)c3ccccc3n2)CC1 [Example 227, tert-Butyl({trans-4-[({[2-(4-{2-[(2-methoxyethyl)(methyl)-amino]ethyl}piperidin-1-yl)quinolin-4-yl]carbonyl}amino)-methyl]cyclohexyl}-methyl)carbamate] | 230 nM | 1630 nM |
| CC(C)(C)OC(=O)NC[C@H]1CC[C@H](CNC(=O)c2cc(N3CCC(CCNC4CCOCC4)CC3)nc3ccccc23)CC1 [Example 228, tert-Butyl{[trans-4-({[(2-{4-[2-(tetrahydro-2H-pyran-4-ylamino)ethyl]piperidin-1-yl}quinolin-4-yl)carbonyl]amino}-methyl)cyclohexyl]-methyl}carbamate] | 210 nM | 1520 nM |
| COC1CN(CCC2CCN(c3cc(C(=O)NC[C@H]4CC[C@H](CNC(=O)OC(C)(C)C)CC4)c4ccccc4n3)CC2)C1 [Example 229, tert-Butyl{[trans-4-({[(2-{4-[2-(3-methoxyazetidin-1-yl)ethyl]piperidin-1-yl}quinolin-4-yl)carbonyl]amino}-methyl)cyclohexyl]-methyl}carbamate] | 110 nM | 920 nM |
| CC(C)(C)OC(=O)NC[C@H]1CC[C@H](CNC(=O)c2cc(N3CCC(CCN4CCCC4)CC3)nc3ccccc23)CC1 [Example 231, tert-Butyl[(trans-4-{[({2-[4-(2-pyrrolidin-1-ylethyl)piperidin-1-yl]quinolin-4-yl}carbonyl)amino]-methyl}cyclohexyl)-methyl]carbamate] | 80 nM | 700 nM |
| CN(CCO)CCC1CCN(c2cc(C(=O)NC[C@H]3CC[C@H](CNC(=O)OC(C)(C)C)CC3)c3ccccc3n2)CC1 [Example 232, tert-Butyl({trans-4-[({[2-(4-{2-[(2-hydroxyethyl)(methyl)-amino]ethyl}piperidin-1-yl)quinolin-4-yl]carbonyl}amino)-methyl]cyclohexyl}-methyl)carbamate] | 140 nM | 1290 nM |
| CC(C)(C)OC(=O)NC[C@H]1CC[C@H](CNC(=O)c2cc(N3CCC(CCN4CC(O)C4)CC3)nc3ccccc23)CC1 [Example 233, tert-Butyl {[trans-4-({[(2-{4-[2-(3-hydroxyazetidin-1-yl)ethyl]piperidin-1-yl}quinolin-4-yl)carbonyl]amino}methyl)cyclohexyl]methyl}carbamate] | 100 nM | 1020 nM |
| CC(C)(C)OC(=O)NC[C@H]1CC[C@H](CNC(=O)c2cc(N3CCC(CCN4CCC4)CC3)nc3ccccc23)CC1 [Example 234, tert-Butyl [(trans-4-{[({2-[4-(2-azetidin-1-ylethyl)piperidin-1-yl]quinolin-4-yl}carbonyl)amino]methyl}cyclohexyl)methyl]carbamate] | 110 nM | 950 nM |
| CC(C)(C)OC(=O)NC[C@H]1CC[C@H](CNC(=O)c2cc(N3CCC(CCN4CC(C(=O)O)C4)CC3)nc3ccccc23)CC1 [Example 235, 1-{2-[1-(4-{[(trans-4-{[(tert-Butoxycarbonyl)amino]methyl}cyclohexyl)methyl]-carbamoyl}quinolin-2-yl)piperidin-4-yl]ethyl}azetidine-3-carboxylic Acid] | 230 nM | 1840 nM |
| CC(C)(C)OC(=O)NC[C@H]1CC[C@H](CNC(=O)c2cc(N3CCC(CCN4CC(N)C4)CC3)nc3ccccc23)CC1 [Example 236, tert-Butyl {[trans-4-({[(2-{4-[2-(3-aminoazetidin-1-yl)ethyl]piperidin-1-yl}quinolin-4-yl)carbonyl]amino}methyl)cyclohexyl]methyl}carbamate] | 80 nM | 550 nM |
| CN(C)CC(F)CC1CCN(c2cc(C(=O)NC[C@H]3CC[C@H](CNC(=O)OC(C)(C)C)CC3)c3ccccc3n2)CC1 (stereo partly drawn) [Example 237, tert-Butyl {[trans-4-({[(2-{4-[3-(dimethylamino)-2-fluoropropyl]piperidin-1-yl}quinolin-4-yl)carbonyl]amino}methyl)cyclohexyl]methyl}carbamate] | 140 nM | 1090 nM |
| CN(C)CCOC1CN(c2cc(C(=O)NC[C@H]3CC[C@H](CNC(=O)OC(C)(C)C)CC3)c3ccccc3n2)C1 [Example 238, tert-Butyl {[trans-4-({[(2-{3-[2-(dimethylamino)ethoxy]azetidin-1-yl}quinolin-4-yl)carbonyl]amino}methyl)cyclohexyl]methyl}carbamate] | 630 nM | 4450 nM |
| CC(C)(C)OC(=O)NC[C@H]1CC[C@H](CNC(=O)c2cc(-c3cn[nH]c3)nc(-c3cccc(CN)c3)c2)CC1 [Example 239, tert-Butyl [(trans-4-{[({2-[3-(aminomethyl)phenyl]-6-(1H-pyrazol-4-yl)pyridin-4-yl}carbonyl)amino]methyl}cyclohexyl)methyl]carbamate] | 350 nM | 740 nM |
| CC(C)(C)OC(=O)NC[C@H]1CC[C@H](CNC(=O)c2cc(-c3cccnc3)nc(-c3cccc(CN)c3)c2)CC1 [Example 240, tert-Butyl [(trans-4-{[({6-[3-(aminomethyl)phenyl]-2,3′-bipyridin-4-yl}carbonyl)amino]methyl}cyclohexyl)methyl]carbamate] | 360 nM | 1080 nM |
